Read-outs that look alike come from different tables or passages of the source.
How the values were obtained:
[1] = target: T1, Lp-PLA2 in human serum (Homo sapiens, UniProt Q13093); test: In vitro inhibitory activity towards the enzyme Lp-PLA2 in human serum, [3H]PAF substrate; assay type: biochemical; settings: for inhibition at 0.01 µM: 10 nM; for inhibition at 0.1 µM: 100 nM
T1 construct: from tissue
T1 sequence (Q13093 22-441): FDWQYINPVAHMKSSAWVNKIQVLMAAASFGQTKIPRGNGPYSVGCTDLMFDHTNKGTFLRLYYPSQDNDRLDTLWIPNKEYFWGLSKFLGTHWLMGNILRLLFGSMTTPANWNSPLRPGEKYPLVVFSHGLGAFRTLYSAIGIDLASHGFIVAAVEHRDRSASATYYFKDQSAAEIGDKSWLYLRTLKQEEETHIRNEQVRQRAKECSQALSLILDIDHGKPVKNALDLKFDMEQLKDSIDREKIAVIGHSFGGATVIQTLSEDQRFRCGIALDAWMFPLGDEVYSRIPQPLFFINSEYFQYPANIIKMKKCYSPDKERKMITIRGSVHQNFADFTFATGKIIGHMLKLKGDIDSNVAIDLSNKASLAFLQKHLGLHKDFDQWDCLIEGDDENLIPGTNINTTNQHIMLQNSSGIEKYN
Summary of the method: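 Human plasma was preincubated with compound 10 min at 37 °C in 50 mM HEPES, 150 mM NaCl, pH 7.4. Reaction started with 20 nM [3H]PAF, run 10 min at 37 °C, then extracted with CHCl3/MeOH (2:1); radioactivity of the supernatant was counted.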

[2] = target: T2, Lp-PLA2 in rabbit serum (Oryctolagus cuniculus, UniProt G1SE06); test: In vitro inhibitory activity towards the enzyme Lp-PLA2 in rabbit serum, [3H]PAF substrate; assay type: biochemical; settings: for inhibition at 0.1 µM: 100 nM
T2 construct: from tissue; host or cells: rabbit serum
T2 sequence (G1SE06 22-423): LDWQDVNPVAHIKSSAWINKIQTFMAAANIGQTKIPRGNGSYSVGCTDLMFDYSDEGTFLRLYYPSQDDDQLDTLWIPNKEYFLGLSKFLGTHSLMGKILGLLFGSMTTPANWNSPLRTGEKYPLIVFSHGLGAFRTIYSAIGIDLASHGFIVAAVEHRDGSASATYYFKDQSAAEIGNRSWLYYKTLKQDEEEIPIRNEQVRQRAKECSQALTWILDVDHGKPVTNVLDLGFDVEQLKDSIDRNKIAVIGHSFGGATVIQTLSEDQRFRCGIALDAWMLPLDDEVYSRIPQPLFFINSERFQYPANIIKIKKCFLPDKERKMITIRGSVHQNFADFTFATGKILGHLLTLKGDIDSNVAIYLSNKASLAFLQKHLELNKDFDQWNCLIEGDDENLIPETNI

[3] = human serum, read-out: inhibition, %
[4] = read-out: inhibitory rate towards the human serum derived Lp-PLA2 enzyme
[5] = rabbit serum, read-out: inhibition, %
[6] = read-out: inhibitory rate towards the rabbit serum derived Lp-PLA2 enzyme

| inhibition at 0.01 µM [1, 3] [%] | inhibition at 0.01 µM [1, 4] [%] | inhibition at 0.1 µM ([1]; human serum) [%] | inhibition at 0.1 µM [2, 5] [%] | inhibition at 0.1 µM [2, 6] [%] | inhibition at 1 µM ([2]; rabbit serum) [%] | SMILES |
| --- | --- | --- | --- | --- | --- | --- |
| 100 | > 80 | 100 | 97 | > 90 |  | C[N+](C)(Cc1ccc(F)cc1)Cc1nnc(Cn2c(SCc3ccc(F)cc3)nc(=O)c3c2CCC3)n1Cc1ccc(-c2ccc(C(F)(F)F)cc2)cc1 [Example 76, N-(4-fluorobenzyl)-1-(5-((2-(4-fluorobenzylthio)-4-oxo-4,5,6,7-tetrahydro-1H-cyclopenta[d]pyrimidin-1-yl)methyl)-4-((4′-(trifluoromethyl)biphenyl-4-yl)methyl)-4 H-1,2,4-triazol-3-yl)-N,N-dimethylmethanaminium bromide] |
| 69 |  | 95 | 89.1 |  |  | CN(Cc1ccc(F)cc1)Cc1cnc(Cn2c(SCc3ccc(F)cc3)nc(=O)c3c2CCC3)n1Cc1ccc(-c2ccc(C(F)(F)F)cc2)cc1 [Example 44] |
| 68 |  | 92 | 75 |  |  | CCS(=O)(=O)NCc1nnc(Cn2c(SCc3ccc(F)cc3)nc(=O)c3c2CCC3)n1Cc1ccc(-c2ccc(C(F)(F)F)cc2)cc1 [Example 111, N-((5-((2-(4-fluorobenzylthio)-4-oxo-4,5,6,7-tetrahydro-1H-cyclopenta[d]pyrimidin-1-yl)methyl)-4-((4′-(trifluoromethyl)biphenyl-4-yl)methyl)-4H-1,2,4-triazol-3-yl)methyl)ethanesulfonamide] |
| 92 |  |  | 94 |  |  | CCN(CC)CCNC(C)c1nnc(Cn2c(SCc3ccc(F)cc3)nc(=O)c3c2CCC3)n1Cc1ccc(-c2ccc(C(F)(F)F)cc2)cc1 (stereo not shown) [Example 130, 1-((5-(1-(2-(diethylamino)ethylamino)ethyl)-4-((4′-(trifluoromethyl)biphenyl-4-yl)methyl)-4H-1,2,4-triazol-3-yl)methyl)-2-(4-fluorobenzylthio)-6,7-dihydro-1H-cyclopenta[d]pyrimidin-4(5H)-one] |
| 58 |  | 88 | 68 |  |  | CC(C)(C)N/N=C/c1nnc(Cn2c(SCc3ccc(F)cc3)nc(=O)c3c2CCC3)n1Cc1ccc(-c2ccc(C(F)(F)F)cc2)cc1 [Example 118] |
| 65 |  | 91 | 73 |  |  | O=c1nc(SCc2ccc(F)cc2)n(Cc2nnc(CO)n2Cc2ccc(-c3ccc(C(F)(F)F)cc3)cc2)c2c1CCC2 [Example 72, 2-(4-fluorobenzylthio)-1-((5-(hydroxymethyl)-4-((4′-(trifluoromethyl)biphenyl-4-yl)methyl)-4H-1,2,4-triazol-3-yl)methyl)-6,7-dihydro-1H-cyclopenta[d]pyrimidin-4(5H)-one] |
| 93 |  | 97 | 34 |  | 87 | O=c1nc(SCc2ccc(F)cc2)n(Cc2nnc(C3CC3)n2Cc2ccc(-c3ccc(C(F)(F)F)cc3)cc2)c2c1CCC2 [Example 68, 1-((5-cyclopropyl-4-((4′-(trifluoromethyl)biphenyl-4-yl)methyl)-4H-1,2,4-triazol-3-yl)methyl)-2-(4-fluorobenzylthio)-6,7-dihydro-1H-cyclopenta[d]pyrimidin-4(5 H)-one] |
| 56 |  | 90 | 87 |  |  | O=c1nc(SCc2ccc(F)cc2)n(Cc2ncc(CN3CCN(Cc4ccccc4)CC3)n2Cc2ccc(-c3ccc(C(F)(F)F)cc3)cc2)c2c1CCC2 [Example 45, 1-((5-((4-benzylpiperazin-1-yl)methyl)-1-((4′-(trifluoromethyl)biphenyl-4-yl)methyl)-1H-imidazol-2-yl)methyl)-2-(4-fluorobenzylthio)-6,7-dihydro-1H-cyclopenta[d]pyrimidin-4(5H)-one] |
| 70 |  | 91 | 68 |  |  | CN1CCN(Cc2nnc(Cn3c(SCc4ccc(F)cc4)nc(=O)c4c3CCC4)n2Cc2ccc(-c3ccc(C(F)(F)F)cc3)cc2)CC1 [Example 107, 2-(4-fluorobenzylthio)-1-((5-((4-methylpiperazin-1-yl)methyl)-4-((4′-(trifluoromethyl)biphenyl-4-yl)methyl)-4H-1,2,4-triazol-3-yl)methyl)-6,7-dihydro-1H-cyclopenta[d]pyrimidin-4(5H)-one] |
| 67 |  | 83 | 67 |  |  | CC(=O)NCc1nnc(Cn2c(SCc3ccc(F)cc3)nc(=O)c3c2CCC3)n1Cc1ccc(-c2ccc(C(F)(F)F)cc2)cc1 [Example 110, N-((5-((2-(4-fluorobenzylthio)-4-oxo-4,5,6,7-tetrahydro-1H-cyclopenta[d]pyrimidin-1-yl)methyl)-4-((4′-(trifluoromethyl)biphenyl-4-yl)methyl)-4H-1,2,4-triazol-3-yl)methyl)acetamide] |
| 59 |  | 91 | 77 |  |  | COC(=O)C(C)(C)NCc1nnc(Cn2c(SCc3ccc(F)cc3)nc(=O)c3c2CCC3)n1Cc1ccc(-c2ccc(C(F)(F)F)cc2)cc1 [Example 85, methyl-2-((5-((2-(4-fluorobenzylthio)-4-oxo-4,5,6,7-tetrahydro-1H-cyclopenta[d]pyrimidin-1-yl)methyl)-4-((4′-(trifluoromethyl)biphenyl-4-yl)methyl)-4H-1,2,4-triazol-3-yl)methylamino)-2-methylpropanoate] |
| 77 |  | 98 | 85 |  |  | CC(C)N(C)Cc1nnc(Cn2c(SCc3ccc(F)cc3)nc(=O)c3c2CCC3)n1Cc1ccc(-c2ccc(C(F)(F)F)cc2)cc1 [Example 82, 2-(4-fluorobenzylthio)-1-((5-((isopropyl(methyl)amino)methyl)-4-((4′-(trifluoromethyl)biphenyl-4-yl)methyl)-4H-1,2,4-triazol-3-yl)methyl)-6,7-dihydro-1H-cyclopenta[d]pyrimidin-4(5H)-one] |
| 82 | > 80 | 96 | 90 | > 90 |  | CCN1CCN(Cc2nnc(Cn3c(SCc4ccc(F)cc4)nc(=O)c4c3CCC4)n2Cc2ccc(-c3ccc(C(F)(F)F)cc3)cc2)CC1 [Example 86, 1-((5-((4-ethylpiperazin-1-yl)methyl)-4-((4′-(trifluoromethyl)biphenyl-4-yl)methyl)-4H-1,2,4-triazol-3-yl)methyl)-2-(4-fluorobenzylthio)-6,7-dihydro-1H-cyclopenta[d]pyrimidin-4(5H)-one] |
| 75 |  | 89 | 87.1 |  | 97.2 | CN(C)Cc1cnc(Cn2c(SCc3ccc(F)cc3)nc(=O)c3c2CCC3)n1Cc1ccc(-c2ccc(C(F)(F)F)cc2)cc1 [Example 46, 1-((5-((dimethylamino)methyl)-1-((4′-(trifluoromethyl)biphenyl-4-yl)methyl)-1H-imidazol-2-yl)methyl)-2-(4-fluorobenzylthio)-6,7-dihydro-1H-cyclopenta[d]pyrimidin-4(5H)-one] |
| 92 | > 80 | 98 | 91 | > 90 |  | CC(C)c1nnc(Cn2c(SCc3ccc(F)cc3)nc(=O)c3c2CCC3)n1Cc1ccc(-c2ccc(C(F)(F)F)cc2)cc1 [Example 67, 2-(4-fluorobenzylthio)-1-((5-isopropyl-4-((4′-(trifluoromethyl)biphenyl-4-yl)methyl)-4H-1,2,4-triazol-3-yl)methyl)-6,7-dihydro-1H-cyclopenta[d]pyrimidin-4(5H)-one] |
| 59 |  | 91 | 67 |  |  | COC(=O)C(C)(C)N1CCN(Cc2nnc(Cn3c(SCc4ccc(F)cc4)nc(=O)c4c3CCC4)n2Cc2ccc(-c3ccc(C(F)(F)F)cc3)cc2)CC1 [Example 88, methyl-2-(4-((5-((2-(4-fluorobenzylthio)-4-oxo-4,5,6,7-tetrahydro-1H-cyclopenta[d]pyrimidin-1-yl)methyl)-4-((4′-(trifluoromethyl)biphenyl-4-yl)methyl)-4H-1,2,4-triazol-3-yl)methyl)piperazin-1-yl)-2-methylpropanoate] |

— patent US20140171431A1, “AZOLE HETEROCYCLIC COMPOUND, PREPARATION METHOD, PHARMACEUTICAL COMPOSITION AND USE” (priority 2011, published 2014)
